Measured values: patent US11571397B2, “Compositions and methods for treating seizure-induced sudden death” (ZOGENIX INTERNATIONAL LIMITED, priority 2018, dated 2023)

Tests used:
DBA mice = conditions: cited from earlier work; for seizure-induced respiratory failure and death: DBA mice, dose-dependent
DBA/1 mice = experiment: Reversal of FFA's anticonvulsant and S-IRA blocking effects by selective 5-HT receptor antagonists in DBA/1 mice; type: in vivo, mouse
Protocol: (§1) For these experiments, DBA/1 mice (N=287) were used (after subjecting to the established priming procedure to assure consistent susceptibility to S-IRA following AGSz) to assess the effects of fenfluramine on various 5-HT receptors. Seizures were induced using an electrical bell, and resuscitation was accomplished using a rodent respirator (Faingold et al., 2010). At least 24 hours after priming, the mice received FFA (15 mg/kg, i.p.) and were tested for AGSz and S-IRA susceptibility 16 hours later. Thirty minutes prior to AGSz induction, a selective 5-HT receptor antagonist or vehicle was administered to evaluate if a specific receptor contributes to the ability of FFA to block S-IRA. Seizure behaviors were recorded on videotape, quantified, and compared statistically with vehicle-treated negative and FFA-treated positive controls (Chi-Square Test; significance set at p<0.05).
Specifically, the antagonists tested were: the 5-HT1A antagonist WAY100635 (0.1-15 mg/kg); the 5-HT2 antagonist Ritanserin (10-20 mg/kg); the 5-HT3 antagonist Ondansetron (1-3 mg/kg); the 5-HT4 antagonist GR125487 (20-60 mg/kg); the 5-HT5A antagonist SB669551 (10-20 mg/kg); and the 5-HT7 antagonist SB269970 (30-40 mg/kg). Studies investigating the effect of 5-HT6 and 5-HT1a/1b antagonists are also underway.
as §1, with “mice” for “mice (N=287)”

[1] = dietary supplementation, DBA/1 mice

For `N[C@@H](Cc1c[nH]c2ccc(O)cc12)C(=O)O` [5-hydroxytryptophan], the S-IRA (DBA mice; [1]) is listed as “blocked” and the “incidence of AGSz behaviors” value (DBA mice; [1]) is listed as “significantly reduced”.
With `COc1[nH]c2ccc(F)cc2c1C(=O)OCC1CCN(CCNS(C)(=O)=O)CC1` [GR125487] the “reversal of the FFA-induced S-IRA blockade” value (DBA/1 mice; antagonist 30 mg/kg, 30 min before AGSz, FFA 15 mg/kg i.p. 16 h before, p<0.05) was “partial reversal” and the “reversal of FFA's anticonvulsant effect against the severity of AGSz” value (shortened to “reversal of FFA's anticonvulsant effect”) (DBA/1 mice; antagonist 30 and 60 mg/kg, FFA 15 mg/kg) was “able to reverse”.
With `Cc1nccn1CC1CCc2c(c3ccccc3n2C)C1=O` (centres unmarked) [Ondansetron] the “reversal of FFA's effect” value (DBA/1 mice; antagonist 1-3 mg/kg, FFA 15 mg/kg) was “not effective at any dose tested”.
In the case of `Cc1nc2sccn2c(=O)c1CCN1CCC(=C(c2ccc(F)cc2)c2ccc(F)cc2)CC1` [Ritanserin], the “reversal of FFA's anticonvulsant effect” value (DBA/1 mice; antagonist 20 mg/kg, FFA 15 mg/kg) is reported as “able to reverse”.
For `CC1CCN(CC[C@H]2CCCN2S(=O)(=O)c2cccc(O)c2)CC1` [SB269970], the “reversal of FFA's anticonvulsant effect” value (DBA/1 mice; antagonist 30 mg/kg and 40 mg/kg, FFA 15 mg/kg) was “able to reverse”.
For `CN(C)CCN(Cc1ccc(-c2ccc(CNCCc3ccccc3)cc2)cc1)C(=O)CCC1CCCC1` [SB669551], the “effect on FFA's anticonvulsant effect” value (DBA/1 mice; antagonist at 20 mg/kg, FFA 15 mg/kg) was “blocked”.
With `COc1ccccc1N1CCN(CCN(C(=O)C2CCCCC2)c2ccccn2)CC1` [WAY100635] the “reversal of FFA's effect” value (DBA/1 mice; antagonist 0.1-15 mg/kg, FFA 15 mg/kg) was “not effective at any dose tested”.
In the case of `CNCC[C@@H](Oc1ccccc1C)c1ccccc1` [atomoxetine], the “seizure-induced respiratory failure and death” value (DBA mice) is given as “prevent”.
For `CNCCC(Oc1ccc(C(F)(F)F)cc1)c1ccccc1` (centres unmarked) [fluoxetine], the “seizure-induced respiratory failure and death” value (DBA mice) is given as “prevent”.
In the case of `COCCCC/C(=N\OCCN)c1ccc(C(F)(F)F)cc1` [fluvoxamine], the “seizure-induced respiratory failure and death” value (DBA mice) is listed as “prevent”.
For `CN[C@H]1CC[C@@H](c2ccc(Cl)c(Cl)c2)c2ccccc21` [sertraline], the “seizure-induced respiratory failure and death” value (DBA mice) is given as “prevent”.
In the case of `COc1ccc(C(CN(C)C)C2(O)CCCCC2)cc1` (centres unmarked) [venlafaxine], the “seizure-induced respiratory failure and death” value (DBA mice) is listed as “prevent”.
